Key:
Assay type in all cases: cell-based
human GLUT1 = molecular target: T1, human GLUT1 (Homo sapiens, UniProt P11166); experiment: [3H]-deoxy-D-glucose uptake assay, GLUT1; settings: [3H]-deoxy-D-glucose uptake in HEK293 cells stably expressing human GLUT1
T1 construct: expressed in transfected cells
T1 sequence (P11166 1-492): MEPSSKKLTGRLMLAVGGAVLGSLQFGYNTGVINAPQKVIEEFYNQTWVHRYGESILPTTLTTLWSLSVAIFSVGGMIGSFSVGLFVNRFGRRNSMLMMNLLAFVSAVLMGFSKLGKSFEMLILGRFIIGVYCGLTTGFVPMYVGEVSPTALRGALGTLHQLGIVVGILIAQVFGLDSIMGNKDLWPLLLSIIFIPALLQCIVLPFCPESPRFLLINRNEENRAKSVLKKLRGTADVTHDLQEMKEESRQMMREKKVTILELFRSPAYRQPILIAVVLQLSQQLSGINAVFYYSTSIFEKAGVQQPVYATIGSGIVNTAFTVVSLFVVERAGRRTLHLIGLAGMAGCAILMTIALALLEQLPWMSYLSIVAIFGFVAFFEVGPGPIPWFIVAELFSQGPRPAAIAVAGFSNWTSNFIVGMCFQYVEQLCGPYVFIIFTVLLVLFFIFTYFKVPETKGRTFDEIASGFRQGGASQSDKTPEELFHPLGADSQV
Summary of the method: (§1)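 HEK293 cells stably overexpressing human GLUT1 or GLUT2, seeded at 60,000 per well, treated with compounds in glucose-free uptake buffer for 30 min at 37 °C. [3H]-deoxy-D-glucose uptake quantified by scintillation counting after ice-cold PBS washes; IC50 determined.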

human GLUT2 = molecular target: T2, human GLUT2 (Homo sapiens, UniProt P11168); experiment: [3H]-deoxy-D-glucose uptake assay, GLUT2; settings: [3H]-deoxy-D-glucose uptake in HEK293 cells stably expressing human GLUT2
T2 construct: expressed in transfected cells
T2 sequence (P11168 1-524): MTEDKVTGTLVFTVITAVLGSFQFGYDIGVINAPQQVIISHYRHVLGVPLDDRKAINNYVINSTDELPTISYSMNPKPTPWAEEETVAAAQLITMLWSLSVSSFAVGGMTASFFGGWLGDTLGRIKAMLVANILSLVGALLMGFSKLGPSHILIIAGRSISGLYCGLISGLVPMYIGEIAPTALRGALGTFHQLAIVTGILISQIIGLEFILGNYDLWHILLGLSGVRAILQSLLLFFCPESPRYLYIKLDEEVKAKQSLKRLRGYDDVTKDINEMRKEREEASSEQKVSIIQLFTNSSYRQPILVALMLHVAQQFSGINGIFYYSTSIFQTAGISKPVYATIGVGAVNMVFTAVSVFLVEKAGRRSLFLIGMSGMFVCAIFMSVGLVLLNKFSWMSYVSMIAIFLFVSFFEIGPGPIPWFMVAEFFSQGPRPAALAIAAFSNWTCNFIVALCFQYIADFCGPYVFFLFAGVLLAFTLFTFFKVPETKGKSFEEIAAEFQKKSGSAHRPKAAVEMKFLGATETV
Summary of the method: as §1

human GLUT3 = molecular target: T3, human GLUT3 (Homo sapiens, UniProt P11169); experiment: [3H]-deoxy-D-glucose uptake assay, GLUT3; settings: [3H]-deoxy-D-glucose uptake in HEK293 cells stably expressing human GLUT3
T3 construct: expressed in transfected cells
T3 sequence (P11169 1-496): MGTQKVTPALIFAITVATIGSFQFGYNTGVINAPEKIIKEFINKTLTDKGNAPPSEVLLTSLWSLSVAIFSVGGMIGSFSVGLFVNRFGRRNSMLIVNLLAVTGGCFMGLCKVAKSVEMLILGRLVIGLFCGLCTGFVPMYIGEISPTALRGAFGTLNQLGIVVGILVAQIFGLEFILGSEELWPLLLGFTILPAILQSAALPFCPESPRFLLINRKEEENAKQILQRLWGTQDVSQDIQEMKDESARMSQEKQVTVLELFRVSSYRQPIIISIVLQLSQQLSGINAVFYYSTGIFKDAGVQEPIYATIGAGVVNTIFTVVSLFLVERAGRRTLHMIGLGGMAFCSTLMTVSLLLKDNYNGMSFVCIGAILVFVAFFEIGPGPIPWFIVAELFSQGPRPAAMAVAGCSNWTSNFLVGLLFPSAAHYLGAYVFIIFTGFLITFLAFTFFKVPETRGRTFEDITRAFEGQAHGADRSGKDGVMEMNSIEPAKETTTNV
Protocol: (§2) HEK293 cells were engineered to stably express either human GLUT1, GLUT2, GLUt3 or GLUT4 by transfection with the pReceiver-Lv105 plasmid, containing either hGLUT1, hGLUT2, hGLUT3, or hGLUT4 gene constructs with lipofectamine 2000, hGLUT1- hGLUT2- hGLUT3- or hGLUT4-overexpressing polyclonal populations were isolated under purinomycin selective pressure (1 μg/ml) and maintained in Dulbecco's modified Eagle's medium supplemented with 1 μg/ml purinomycin+10% foetal bovine serum (FBS).
(§3) 60,000 cells per well were seeded overnight into poly-D-lysine coasted 96-well plates. Following media removal, cells were washed twice in warm glucose-free uptake buffer (25 mM HEPES/KOH pH 7.4, 125 mM NaCl, 4.8 mM KCl, 1.2 mM MgSO4, 1.2 mM CaCl2, 1.2 mM KH2PO4). 90 μl of test compounds were added in glucose-free uptake buffer and cells were incubated at 37° C. for 30 min. 10 μl of [3H]-deoxy-D-glucose (0.25 μCi, 125 μM final assay concentration) was then added per well in glucose-free uptake buffer and uptake was allowed to proceed at 37° C. for 30 min.
(§4) Cells were then washed twice with ice-cold PBS and 100 μl of Microscint-20 was added per well. Glucose uptake was quantified with a scintillation counter. The half maximal inhibitory concentration (IC50) (a measure of the effectiveness of the test compound in inhibiting glucose uptake) was determined.

human GLUT4 = molecular target: T4, human GLUT4 (Homo sapiens, UniProt P14672); experiment: [3H]-deoxy-D-glucose uptake assay, GLUT4; settings: [3H]-deoxy-D-glucose uptake in HEK293 cells stably expressing human GLUT4
T4 construct: expressed in transfected cells
T4 sequence (P14672 1-509): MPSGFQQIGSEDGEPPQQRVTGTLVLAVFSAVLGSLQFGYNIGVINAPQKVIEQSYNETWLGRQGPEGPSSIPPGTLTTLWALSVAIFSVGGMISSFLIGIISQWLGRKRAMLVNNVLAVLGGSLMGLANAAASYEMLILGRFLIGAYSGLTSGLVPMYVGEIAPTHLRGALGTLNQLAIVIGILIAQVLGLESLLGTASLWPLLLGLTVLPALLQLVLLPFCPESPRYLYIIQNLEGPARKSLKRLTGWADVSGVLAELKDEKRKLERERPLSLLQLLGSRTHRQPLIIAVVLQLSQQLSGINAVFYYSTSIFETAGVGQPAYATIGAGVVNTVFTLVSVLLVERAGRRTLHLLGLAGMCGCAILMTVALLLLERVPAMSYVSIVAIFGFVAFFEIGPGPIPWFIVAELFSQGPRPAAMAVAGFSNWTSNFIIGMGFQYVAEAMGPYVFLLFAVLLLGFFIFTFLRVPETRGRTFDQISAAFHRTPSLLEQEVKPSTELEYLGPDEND
Protocol: as §2, §3, §4

| GLUT1 pIC50 (human GLUT1) | GLUT2 pIC50 (human GLUT2) | GLUT3 pIC50 (human GLUT3) | GLUT4 pIC50 (human GLUT4) | SMILES |
| --- | --- | --- | --- | --- |
| +++ (pIC50 ≧ 6.00) | ++ (pIC50 5.00-5.99) | +++ (pIC50 ≧ 6.00) | +++ (pIC50 ≧ 6.00) | CC(=O)N1CCN(Cc2c(-c3ccc(Cl)cc3)nc3ccc(N(C)S(=O)(=O)C(C)C)cn23)CC1 [Compound 340] |
| +++ (pIC50 ≧ 6.00) | +++ (pIC50 ≧ 6.00) | +++ (pIC50 ≧ 6.00) | +++ (pIC50 ≧ 6.00) | CC(=O)N1CCN(Cc2c(-c3ccc(Cl)cc3)nc3ccc(N4CCCCS4(=O)=O)cn23)CC1 [Compound 326] |
| +++ (pIC50 ≧ 6.00) | ++ (pIC50 5.00-5.99) | +++ (pIC50 ≧ 6.00) | +++ (pIC50 ≧ 6.00) | CCS(=O)(=O)c1ccc2nc(-c3ccc(Cl)cc3)c(CN3CCN(C(C)=O)CC3)n2c1 [Compound 385] |
| +++ (pIC50 ≧ 6.00) | ++ (pIC50 5.00-5.99) | +++ (pIC50 ≧ 6.00) | +++ (pIC50 ≧ 6.00) | CC(C)(O)C(=O)N1CCN(Cc2c(-c3ccc(Cl)cc3Cl)nc3ccc(NS(C)(=O)=O)cn23)CC1 [Compound 361] |
| +++ (pIC50 ≧ 6.00) | ++ (pIC50 5.00-5.99) | +++ (pIC50 ≧ 6.00) | +++ (pIC50 ≧ 6.00) | CCN(c1ccc2nc(-c3ccc(Cl)cc3)c(CN3CCN(C(C)=O)CC3)n2c1)S(C)(=O)=O [Compound 353] |
| +++ (pIC50 ≧ 6.00) | +++ (pIC50 ≧ 6.00) | +++ (pIC50 ≧ 6.00) | +++ (pIC50 ≧ 6.00) | CN(c1ccc2nc(-c3ccc(Cl)cc3Cl)c(CN3CCN4C(=O)CCC4C3)n2c1)S(C)(=O)=O (stereo not shown) [Compound 374] |
| +++ (pIC50 ≧ 6.00) | ++ (pIC50 5.00-5.99) | +++ (pIC50 ≧ 6.00) | +++ (pIC50 ≧ 6.00) | Cn1cc(C(=O)N2CCN(Cc3c(-c4ccc(Cl)cc4Cl)nc4ccc(NS(C)(=O)=O)cn34)CC2)cn1 [Compound 369] |
| +++ (pIC50 ≧ 6.00) | +++ (pIC50 ≧ 6.00) | +++ (pIC50 ≧ 6.00) | +++ (pIC50 ≧ 6.00) | CN(c1ccc2nc(-c3ccc(Cl)cc3Cl)c(CN3CCN(C(=O)c4ccc(F)cc4)CC3)n2c1)S(C)(=O)=O [Compound 363] |
| +++ (pIC50 ≧ 6.00) | +++ (pIC50 ≧ 6.00) | +++ (pIC50 ≧ 6.00) | +++ (pIC50 ≧ 6.00) | CN(c1ccc2nc(-c3ccc(Cl)cc3Cl)c(CN3CCN(C(=O)c4ccnnc4)CC3)n2c1)S(C)(=O)=O [Compound 370] |
| +++ (pIC50 ≧ 6.00) | +++ (pIC50 ≧ 6.00) | +++ (pIC50 ≧ 6.00) | +++ (pIC50 ≧ 6.00) | CC(C)c1cn2c(CN3CCOCC3)c(-c3ccc(Cl)cc3Cl)nc2cn1 [Compound 366] |
| +++ (pIC50 ≧ 6.00) | +++ (pIC50 ≧ 6.00) | +++ (pIC50 ≧ 6.00) | +++ (pIC50 ≧ 6.00) | CC(=O)N1CCN(Cc2c(-c3ccc(Cl)cc3Cl)nc3cnc(C4CC4)cn23)CC1 [Compound 271] |
| +++ (pIC50 ≧ 6.00) | +++ (pIC50 ≧ 6.00) | +++ (pIC50 ≧ 6.00) | +++ (pIC50 ≧ 6.00) | Fc1cccc(F)c1-c1cn2c(CN3CCOCC3)c(-c3ccc(Cl)cc3)nc2cn1 [Compound 238] |
| +++ (pIC50 ≧ 6.00) | ++ (pIC50 5.00-5.99) | +++ (pIC50 ≧ 6.00) | +++ (pIC50 ≧ 6.00) | CS(=O)(=O)Nc1ccc2nc(-c3ccc(Cl)cc3Cl)c(CN3CCN(C(=O)c4ccc(F)cc4)CC3)n2c1 [Compound 360] |
| +++ (pIC50 ≧ 6.00) | +++ (pIC50 ≧ 6.00) | +++ (pIC50 ≧ 6.00) | +++ (pIC50 ≧ 6.00) | CC(C)(O)C(=O)N1CCN(Cc2c(-c3ccc(Cl)cc3Cl)nc3cnc(C4CC4)cn23)CC1 [Compound 322] |
| +++ (pIC50 ≧ 6.00) | +++ (pIC50 ≧ 6.00) | +++ (pIC50 ≧ 6.00) | +++ (pIC50 ≧ 6.00) | O=C(c1ccnnc1)N1CCN(Cc2c(-c3ccc(Cl)cc3Cl)nc3cnc(C4CC4)cn23)CC1 [Compound 296] |
| +++ (pIC50 ≧ 6.00) | ++ (pIC50 5.00-5.99) | +++ (pIC50 ≧ 6.00) | +++ (pIC50 ≧ 6.00) | CC(=O)N1CCN(Cc2c(-c3ccc(Cl)cc3)nc3ccc(S(=O)(=O)N(C)C)cn23)CC1 [Compound 350] |

Reference: patent US20160120863A1, “SLC2A TRANSPORTER INHIBITORS” (IOMET PHARMA LTD., priority 2013, published 2016)
